Values of other authors, collected in patent publication US7022724B2, “Cognition enhancing derivatives of isoxazole triazoloindane GABA-A α5 receptor subunit ligands” (Merck Sharp & Dohme Ltd., priority 2001, dated 2006).

Experiments:
[1] = background statement
[2] = reported by McNamara and Skelton, Psychobiology 21:101–108

## COC(=O)c1cc2c(cn1)[nH]c1ccccc12 [β-CCM]
[1]
  proconvulsant effect: proconvulsant
[2]
  spatial learning in the Morris watermaze: enhanced spatial learning
